Earlier results on one compound are cited in patent US20070275941A1, “SALT SENSITIVITY AND PREVENTION OF HYPERTENSION WITH DROSPIRENONE” (priority 2006, published 2007).

The data set has as its system postmenopausal women with hypertension.

For the compound `C[C@]12CCC(=O)C=C1[C@@H]1C[C@@H]1[C@H]1[C@@H]3[C@@H]4C[C@@H]4[C@@]4(CCC(=O)O4)[C@@]3(C)CC[C@@H]12` [drospirenone], the potassium sparing effect entry (clinical studies) is recorded as “demonstrated a potassium sparing effect”. Further, the blood pressure reduction entry (postmenopausal women with hypertension, alone or in combination with other agents) is “consistently and substantially reduce blood pressure”.
